Data set [1] is described as follows: Oral bioavailability in Wistar rat at 0.3 mg/kg. It is filed as ADME, organism-based. Conditions: in vivo.
Data set [2] is described as follows: Oral bioavailability in cynomolgus monkey at 0.3 mg/kg. It is filed as ADME, organism-based, Macaca fascicularis. The note with it: in vivo.
Data set [3] can be described thus: Ratio of drug level in brain to plasma in CD rat at 10 to 70 mg/kg, po administered through gavage measured at 6 hrs. It is filed as ADME, organism-based. Conditions: read-out: BPR.

Consider two compounds from ChEMBL document CHEMBL4428025 (J Med Chem, 2016).

In the case of `O=C1NCN(c2ccccc2)C12CCN([C@@H]1CC[C@H]3CCCc4cccc1c43)CC2`, the bioavailability – broadly, dose-corrected exposure relative to a reference, in per cent – was 4% in data set [1] and 1% in data set [2].

For `NC(=O)C1(c2ccccc2)CC2CCC(C1)N2C(c1ccccc1Cl)c1ccccc1Cl` (stereo not drawn), the Kp at 6 h in data set [3] lay in the range of 0.43 to 0.59.
